Data from publication PMC8151276, “An Integrated Approach toward NanoBRET Tracers for Analysis of GPCR Ligand Engagement” (Molecules, 2021).

How the values were obtained:
Format in all cases: binding
HTR1E = target: T1, HTR1E (Homo sapiens, UniProt P28566); assay: NanoBRET screen HiBiT-HTR1E in HEK293; settings: HTR1E
T1 construct: purchased Promega (in-house HiBiT-GPCR construct library, NanoBRET)
Method: (§1) Each tracer candidate was screened across the entire library of HiBiT-GPCR constructs using NanoBRET as the detection modality. As depicted in Figure 4A, the specificity of interactions was evaluated through decrease in BRET due to competitive displacement of a bound tracer by excess parental compound. Each tracer was analyzed for binding to each HiBiT-GPCR fusion in the absence and in the presence of competing parental compound. Briefly, HEK293 cells were transfected with HiBiT-GPCR constructs diluted into promoterless DNA to reduce expression and maximize translocation to the cell surface. Each tracer candidate was then screened at concentrations of 1 μM and 0.1 μM across cells expressing these fusions. Cells were treated for 1.5 h with tracer either alone or in the presence of 20 μM competing parental compound (i.e., control). BRET was measured upon addition of purified LgBiT and subsequent complementation with HiBiT genetically fused to a GPCR. The specificity of interactions was assessed through a decrease in BRET signal due to competitive displacement of the bound tracer. To further gauge the robustness of these interactions, the fold response over the control (i.e., BRETtracer/BRETcontrol) was calculated. We chose a 1.5-fold response, which translates to ≥7-fold signal over noise as the minimal threshold required to score an interaction as positive. […]. Below we highlight the screening results obtained for our exemplary fluorescent tracers based on Clozapine, Amitriptyline and AZD1283.
(§2) HiBiT-GPCR DNA constructs were diluted in 10 mM Tris pH 8 to a final concentration of 0.01 μg/μL, arrayed in 96-well plates and stored at −20 °C. For transfection, HEK293 cells were suspended in Opti-MEM (without phenol red) supplemented with 2% fetal bovine serum (Seradigm) and 100 units/mL penicillin–streptomycin (Gibco) at a final concentration of 220,000 cells/mL and dispensed into white 96-well plates at 90 μL/well. Subsequent transfections and screens were carried using an Agilent Bravo Automated Liquid Handling Platform. First, the 96-well HiBiT DNA arrays were diluted 25-fold in Opti-MEM (without serum or phenol red) to a final concentration of 0.0004 μg/μL and 20 μL of the diluted DNAs were transferred into new 96-well plates. Next, promoterless carrier DNA (1 μg/μL) was diluted 25-fold (0.04 μg/μL) and then dispensed into the diluted arrays at 20 μL/well. Following brief mixing, Viafect transfection reagent (Promega) diluted 16-fold into Opti-MEM was dispensed into the plates at 40 μL/well. After mixing by pipetting, plates were incubated for 10 min on the pipetting station deck. The DNA-transfection reagent complexes were then added to plates containing cells. To facilitate the screen, 10 μL of DNA-transfection reagent complexes were added in duplicates to the top 4 and bottom 4 rows, resulting in two identical 48-well arrays per plate. Plates with transfected cells were incubated for 18–20 h at 37 °C/5% CO2. A screen of each tracer across the entire library using two different concentrations requires duplicate plates of transfected cells. Depending on the number of tracers being screened, transfections can be scaled up using the same ratios. The next day, for each tracer, four 20× screening solutions in tracer dilution buffer (Promega) were prepared: two duplicates at final concentration of 20 μM and two duplicates at a final concentration of 2 μM. A competing unmodified compound was added to one of each duplicate at a final concentration of 400 μM. The four resulting solutions were diluted 4-fold in Opti-MEM without serum or phenol red to generate 5× solutions (5 µM and 0.5 µM tracer +/− 100 μM competing compound). To screen the library, a BioTek MultiFlo FX liquid dispenser was used to dispense 22.5 µL of tracer solution to the top 4 rows and 22.5 µL tracer + competing compound solution to the 4 bottom rows. Plates were briefly mixed on an orbital shaker and incubated for 1.5 h at room temperature. […]

F2RL1 = target: T2, F2RL1 (Homo sapiens, UniProt P55085); assay: NanoBRET screen HiBiT-F2RL1 in HEK293; settings: F2RL1
T2 construct: purchased Promega (in-house HiBiT-GPCR construct library, NanoBRET)
T2 sequence (P55085 26-397): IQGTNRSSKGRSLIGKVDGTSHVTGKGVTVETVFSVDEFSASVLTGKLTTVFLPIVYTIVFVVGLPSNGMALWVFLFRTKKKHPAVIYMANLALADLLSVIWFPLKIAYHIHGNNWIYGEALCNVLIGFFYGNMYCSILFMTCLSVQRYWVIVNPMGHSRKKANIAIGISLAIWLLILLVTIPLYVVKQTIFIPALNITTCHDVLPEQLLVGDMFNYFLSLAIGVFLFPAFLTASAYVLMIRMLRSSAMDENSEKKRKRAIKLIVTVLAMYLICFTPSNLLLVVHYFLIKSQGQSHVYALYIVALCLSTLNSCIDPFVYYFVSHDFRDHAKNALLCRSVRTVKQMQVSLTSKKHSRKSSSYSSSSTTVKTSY
Method: as §1, §2

NPBWR1 = target: T3, NPBWR1 (Homo sapiens, UniProt P48145); assay: NanoBRET screen HiBiT-NPBWR1 in HEK293; settings: NPBWR1
T3 construct: purchased Promega (in-house HiBiT-GPCR construct library, NanoBRET)
T3 sequence (P48145 1-328): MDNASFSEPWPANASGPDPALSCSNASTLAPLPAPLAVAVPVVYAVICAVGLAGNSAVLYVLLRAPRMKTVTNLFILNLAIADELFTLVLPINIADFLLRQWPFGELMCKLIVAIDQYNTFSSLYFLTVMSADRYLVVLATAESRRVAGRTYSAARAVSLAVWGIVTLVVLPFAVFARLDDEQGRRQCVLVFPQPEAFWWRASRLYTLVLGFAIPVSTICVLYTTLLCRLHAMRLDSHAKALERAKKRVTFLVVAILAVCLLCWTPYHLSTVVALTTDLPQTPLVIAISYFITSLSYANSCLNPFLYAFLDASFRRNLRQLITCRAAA
Method: as §1, §2

T1 sequence (P28566 whole entry): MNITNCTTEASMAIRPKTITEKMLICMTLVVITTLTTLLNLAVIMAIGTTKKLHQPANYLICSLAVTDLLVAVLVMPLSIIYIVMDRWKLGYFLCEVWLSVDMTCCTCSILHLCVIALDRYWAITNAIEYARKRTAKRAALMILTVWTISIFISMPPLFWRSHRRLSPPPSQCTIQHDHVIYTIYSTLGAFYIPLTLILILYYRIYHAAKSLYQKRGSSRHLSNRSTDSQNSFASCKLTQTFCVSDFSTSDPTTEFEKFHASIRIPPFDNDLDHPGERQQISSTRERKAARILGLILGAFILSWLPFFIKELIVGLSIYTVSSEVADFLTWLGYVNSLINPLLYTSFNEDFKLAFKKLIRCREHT

Row | SMILES | NanoBRET Fold Response (HTR1E; 0.1μM) | NanoBRET Fold Response (HTR1E; 1μM) | NanoBRET Fold Response (F2RL1; 0.1μM) | NanoBRET Fold Response (F2RL1; 1μM) | NanoBRET Fold Response (NPBWR1; 0.1μM) | NanoBRET Fold Response (NPBWR1; 1μM) | NanoBRET Fold Response (HTR1E; tracer 0.1μM) | NanoBRET Fold Response (HTR1E; tracer 1μM) | NanoBRET Fold Response (F2RL1; tracer 0.1μM) | NanoBRET Fold Response (F2RL1; tracer 1μM) | NanoBRET Fold Response (NPBWR1; tracer 0.1μM) | NanoBRET Fold Response (NPBWR1; tracer 1μM)
1 | O=C(CCc1ccc2n1[B-](F)(F)[N+]1=C(c3ccc[nH]3)C=CC1=C2)NCc1ccc(C(=O)NCCOCCOCCNCC(O)COc2cccc3ccccc23)cc1 (stereo not drawn) [Propranolol-3-NB590] | 1.00 | 0.98 | 1.05 | 1.07 | 1.03 | 0.96 |  |  |  |  |  | 
2 | O=C(CCc1ccc2n1[B-](F)(F)[N+]1=C(c3ccc[nH]3)C=CC1=C2)NCCOCCOCCNC(=O)OCCOCCN1CCN(C2=Nc3ccccc3Sc3ccccc32)CC1 [Quetiapine-a-2-NB590] |  |  |  |  |  |  | 0.96 | 0.99 | 0.88 | 0.71 | 1.01 | 1.04
3 | Cc1nc2n(c(=O)c1CCN1CCC(c3noc4cc(F)ccc34)CC1)CCCC2OC(=O)NCCOCCOCCOCCOCCNC(=O)CCc1ccc2n1[B-](F)(F)[N+]1=C(c3ccc[nH]3)C=CC1=C2 (stereo not drawn) [Risperidone-2-NB590] |  |  |  |  |  |  | 0.96 | 1.07 | 1.00 | 0.94 | 1.07 | 1.06
4 | CC(C)N(CC[C@H](c1ccccc1)c1cc(CCNC(=O)CCOCCOCCOCCOCCNC(=O)CCc2ccc3n2[B-](F)(F)[N+]2=C(c4ccc[nH]4)C=CC2=C3)ccc1O)C(C)C [Tolterodine-2-NB590] |  |  |  |  |  |  | 1.27 | 1.10 | 1.07 | 1.03 | 1.26 | 0.94
5 | CC(C)N(CC[C@H](c1ccccc1)c1cc(CCNC(=O)c2ccc(CNC(=O)CCc3ccc4n3[B-](F)(F)[N+]3=C(c5ccc[nH]5)C=CC3=C4)cc2)ccc1O)C(C)C [Tolterodine-BZ-NB590] |  |  |  |  |  |  | 1.13 | 1.13 | 0.97 | 0.98 | 1.00 | 1.01
6 | CCCn1c(=O)c2[nH]c(-c3ccc(OCC(=O)NCCNC(=O)CCOCCNC(=O)c4ccc(CNC(=O)CCc5ccc6n5[B-](F)(F)[N+]5=C(c7ccc[nH]7)C=CC5=C6)cc4)cc3)nc2n(CCC)c1=O [XAC-3-NB590] |  |  |  |  |  |  | 1.08 | 0.78 | 1.04 | 0.97 | 1.03 | 0.96
